This series is described as follows: Solubility of drug substance in water / suspension. Format: physicochemical.

In the case of `Cc1ccc(Nc2c(F)cccc2Cl)c(CC(=O)O)c1` [5-methyl-2-(2′-chloro-6′-fluoroanilino)phenylacetic acid], the “water solubility of drug substance” value is on record as “relatively water insoluble”.

These data come from patent US20060094787A1, “Pharmaceutical composition comprising 5-methyl-2-2'(chloro-6'-fluoroanilino) phenylacetic acid” (priority 2003, published 2006).
